Measurements from patent US20100234325A1 (priority 2009, published 2010).
Where “and” joins values, the source holds several entries; their conditions need not be identical. Equal values may be shown once. Read-outs that look alike come from different tables or passages of the source.

What was measured:
L1210 leukemia [1] = test: intracerebrally implanted L1210 leukemia in vivo; set-up: species or system murine; conditions: for leukemia cell burden after therapy: highest non-toxic dose; for increase in lifespan (ILS): highest non-toxic doses
D54 tumor = conditions: intraarterial or intravenous administration; cited from earlier work
TE-671 = conditions: intrathecal administration; cited from earlier work
D54 = conditions: intrathecal administration; cited from earlier work
[2] = test system: human glioblastoma xenograft U-251; format: in vivo
MX-1 human breast tumor = format: in vivo
L1210 leukemia [3] = conditions: intracerebral L1210 model, typical value; cited from earlier work
L1210 leukemia [4] = conditions: IP implant; cited from earlier work
[5] = after 6 hours, ambient temperature, 31P-NMR
SF-268 = SF-268 glioma cell line
Description: (§1) Additional in vitro studies vs. U251, D54 and MDA-MB-361 cells also included 4-HC.

SNB-7 = SNB-7 glioma cell line
Description: as §1

SNB-19 = SNB-19 glioma cell line
Description: as §1

Compound: O=P1(N(CCCl)CCCl)NC(OO)CCO1 (centres unmarked) [4-HC, 4-hydroperoxycyclophosphamide]
- activity against intracerebrally implanted L1210 leukemia (L1210 leukemia [1]; implant of 10^4 cells): essentially inactive
- activity against D54 tumor (D54 tumor): active
- activity against TE-671 brain tumor model (TE-671): active
- activity against D54 brain tumor model (D54): active

Compound: O=NN(CCCl)C(=O)NCCCl [BCNU, carmustine, reference compound]
- ILS ([2]; in vivo): 110-150% and 130%
- ILS (MX-1 human breast tumor; in vivo): 13%

Compound: O=P1(N(CCCl)CCCl)NCCCO1 (centres unmarked) [CPA, cyclophosphamide, reference compound]
- leukemia cell burden after therapy (L1210 leukemia [1]; implant of 10^4 cells): 1.3×10^2 cells
- increase in lifespan (ILS) (L1210 leukemia [1]; implant of 10^5 L1210 cells): 37%
- highest non-toxic dose (typical) (L1210 leukemia [3]): 250 to 300 mg/kg

Compound: O=P1(N(CCCl)CCCl)NC(OOC2CCOP(=O)(N(CCCl)CCCl)N2)CCO1 (centres unmarked) [peroxyCPA, 4-peroxy-cyclophosphamide]
- leukemia cell burden after therapy (L1210 leukemia [1]; implant of 10^4 cells): 1.0×10^0 cells
- increase in lifespan (ILS) over controls (L1210 leukemia [1]; implant of 10^4 cells, highest non-toxic dose (300 mg/kg)): 85%
- reduction of leukemia cell burden relative to CPA (L1210 leukemia [1]; implant of 10^5 L1210 cells): two orders of magnitude more
- increase in lifespan (ILS) (L1210 leukemia [1]; implant of 10^5 L1210 cells): 100%
- highest non-toxic dose (L1210 leukemia [1]; intracerebral L1210 model): 300 mg/kg
- activity against intraperitoneally-implanted L1210 leukemia (L1210 leukemia [4]): curative activity
- remaining in human serum [5]: 74%
- in vitro activity compared to BCNU and temozolomide (SF-268): superior activity
- in vitro activity compared to BCNU and temozolomide (SNB-7): superior activity
- in vitro activity compared to BCNU and temozolomide (SNB-19): superior activity
- ILS ([2]; IC-implanted U-251, one (first) study): 300-350%
- ILS ([2]; IC-implanted U-251, second study): 180%
- ILS (MX-1 human breast tumor; IC-implanted MX-1): 69%
- DNA crosslinking (pBR322 DNA): crosslinks DNA
